Experiments:
[1] = target: FGFR4 kinase (Homo sapiens, UniProt P22455); experiment: Inhibition of FGFR4 kinase activity (ULight-labeled JAK-1 peptide, EU665/EU615 reading); type: biochemical; conditions: FGFR4 kinase 3.85 nM, ATP 100 μM, enzymatic reaction 2 hours
Description: (§1) Assay of activity of small molecule compounds on inhibiting FGFR4 kinase and FGFR4 V550L mutant kinase. The assay method was as follows:
(§2) 1) Dilution of Compounds:
(§3) In a 96-well plate a, the compounds were serially diluted 3-fold with DMSO to form 11 concentrations, and the 12th concentration was pure DMSO (as a positive control); In a new 96-well plate b, the above solutions were diluted 25-fold with ultrapure water (DMSO concentration was 4%).
(§4) 2) Transferring Compounds to a 384-Well Plate:
(§5) The above solutions of compounds diluted with ultrapure water in the 96-well plate b were pipetted into corresponding wells of a 384-well plate.
(§6) 3) Adding 4× kinase solution: 2.5 μl of the above 4× kinase solutions were pipetted with a multi-channel pipette into corresponding reaction wells of the 384-well plate, and the mixture was mixed well and pre-reacted at room temperature for 5 minutes.
(§7) 4) Adding 2× substrate/ATP mixture: 5 μl of the above 2× substrate/ATP mixtures were pipetted with a multi-channel pipette into corresponding reaction wells of the 384-well plate.
(§8) 5) Negative control: negative control wells were set up in the 384-well plate by adding 2.5 μl of 4× substrate, 2.5 μl of 4× enzyme solution, 2.5 μl of 1× kinase Assay Buffer and 2.5 μl of ultrapure water containing 4% DMSO to each well.
(§9) 6) Centrifuging, mixing well, and reacting at room temperature in the dark for 2 hours.
(§10) 7) Terminating the Enzymatic Reaction:
(§11) 5 μl of the above 4× stop solutions were pipetted into corresponding wells of the 384-well plate, and the mixture was centrifuged, mixed well, and then reacted at room temperature for 5 minutes.
(§12) 8) Development of the Reaction:
(§13) 5 μl of the above 4× detection solutions were pipetted into corresponding wells of the 384-well plate, and the mixture was centrifuged, mixed well, and then reacted at room temperature for 1 hour.
(§14) 9) The 384-well plate was placed into a plate reader, and the signal was detected using the appropriate program.
(§15) 10) Analysis of IC50: Reading of well=10000*EU665 value/EU615 value Inhibition rate=(reading of positive control well−reading of assay well)/(reading of positive control well−reading of negative control well)*100%
(§16) The corresponding IC50 can be calculated by inputting the drug concentrations and corresponding inhibition rates into GraphPad Prism 5 and processing.
Assay Conditions for Screening FGFR4 Kinase Activity Inhibitory Molecule:
The final concentration of FGFR4 kinase in the reaction system was 3.85 nM, the final concentration of ATP was 100 μM, the final concentration of substrate ULight™-labeled JAK-1 (Tyr1023) Peptide was 100 nM, and the time for enzymatic reaction was 2 hours.
The highest final concentration of the compound in the reaction system was 2.5 μM. After serial 3-fold dilution, there were 11 concentrations in total, and the lowest final concentration was 0.042 nM. The final concentration of DMSO was 1%.

[2] = target: FGFR4 V550L kinase (Homo sapiens, UniProt P22455, V550L); experiment: Inhibition of FGFR4 V550L mutant kinase activity (ULight-labeled PolyGT, EU665/EU615 reading); type: biochemical; conditions: FGFR4 V550L kinase 1 nM, ATP 10 μM, enzymatic reaction 2 hours
Description: as §1, §2, §3, §4, §5, §6, §7, §8, §9, §10, §11, §12, §13, §14, §15, §16
Assay Conditions for Screening FGFR4 V550L Kinase Activity Inhibitory Molecule:
The final concentration of FGFR4 V550L kinase in the reaction system was 1 nM, the final concentration of ATP was 10 μM, the final concentration of substrate ULight™-labeled PolyGT was 100 nM, and the time for enzymatic reaction was 2 hours.
The highest final concentration of the compound in the reaction system was 2.5 μM. After seral 3-fold dilution, there were 11 concentrations in total, and the lowest final concentration was 0.042 nM. The final concentration of DMSO was 1%.

[3] = target: T1, Ba/F3 ETV6-FGFR4 cells (Homo sapiens, UniProt P22455); experiment: Inhibition of cell proliferation (CCK-8), Ba/F3 ETV6-FGFR4 cells; type: cell-based; conditions: 72 hours of incubation, read-out: Ba/F3 ETV6-FGFR4 IC50
T1 construct: fused on or other part: N-terminal part of ETV6 (TEL), the oligomerising partner that makes the FGFR4 kinase constitutively active; P41212 (Transcription factor ETV6)
Description: (§17) Compounds were assayed for inhibiting cell proliferation, and the specific method was as follows: • 1. Cells were cultured to a logarithmic growth phase, pipetted evenly, transferred to a 15 mL centrifuge tube, and centrifuged at 1000 rpm at room temperature for 4 minutes; • 2. The supernatant was discarded; 5 mL of complete medium was added and pipetted evenly; 10 μL of cell suspension was weighed, mixed well with 10 μL of 0.4% trypan blue, and counted under a cell counter; the proportion of living cells was ensured to be above 90%; • 3. The cell suspension was seeded into a 96-well plate (80 μL of cell suspension per well) according to the conditions shown in Table 5; in the outer 36 wells of the 96-well plate, no cells were added but only sterile water was added; only the inner 60 wells were used for cell assay and control; • 4. 5× compound dilution: the compounds were serially diluted 4-fold to give a total of 9 concentrations; 80-fold overall dilution was completed with complete medium, the resulting concentration was 5 times the final drug concentration, and DMSO concentration was 1.25%; • 5. 20 μL of the corresponding compounds with different concentrations were added to each well of assay wells of the 96-well plate; 20 μL of complete medium was added to positive and negative control wells and shaken well; and the final concentration of DMSO in each well was 0.25%; • 6. After 72 hours of incubation, 10 μL of CCK-8 reagent was added to each well and further incubated at 37° C. for 1-2 hours; and the OD value was read at 450 nm; 7. Cell survival rate (%)=[(As−Ab)/(Ac−Ab)]*100% • As: Assay well (medium containing cells, CCK-8, compound) • Ac: Control well (medium containing cells, CCK-8) • Ab: Blank well (medium without cell and compound, CCK-8) • 8. The values were imported into Graphpad Prism 5 software for IC50 calculation.

[4] = target: T2, Ba/F3 ETV6-FGFR4-V550L cells (Homo sapiens, UniProt P22455, V550L, cells depend on it); experiment: Inhibition of cell proliferation (CCK-8), Ba/F3 ETV6-FGFR4-V550L cells; type: cell-based; conditions: 72 hours of incubation, read-out: Ba/F3 ETV6-FGFR4-V550L IC50
T2 construct: fused on or other part: N-terminal part of ETV6 (TEL), the oligomerising partner of the fusion; already named as the first entry; P41212 (Transcription factor ETV6)
Description: as §17

Sequence of FGFR4 V550L kinase (P22455 22-802 V550L): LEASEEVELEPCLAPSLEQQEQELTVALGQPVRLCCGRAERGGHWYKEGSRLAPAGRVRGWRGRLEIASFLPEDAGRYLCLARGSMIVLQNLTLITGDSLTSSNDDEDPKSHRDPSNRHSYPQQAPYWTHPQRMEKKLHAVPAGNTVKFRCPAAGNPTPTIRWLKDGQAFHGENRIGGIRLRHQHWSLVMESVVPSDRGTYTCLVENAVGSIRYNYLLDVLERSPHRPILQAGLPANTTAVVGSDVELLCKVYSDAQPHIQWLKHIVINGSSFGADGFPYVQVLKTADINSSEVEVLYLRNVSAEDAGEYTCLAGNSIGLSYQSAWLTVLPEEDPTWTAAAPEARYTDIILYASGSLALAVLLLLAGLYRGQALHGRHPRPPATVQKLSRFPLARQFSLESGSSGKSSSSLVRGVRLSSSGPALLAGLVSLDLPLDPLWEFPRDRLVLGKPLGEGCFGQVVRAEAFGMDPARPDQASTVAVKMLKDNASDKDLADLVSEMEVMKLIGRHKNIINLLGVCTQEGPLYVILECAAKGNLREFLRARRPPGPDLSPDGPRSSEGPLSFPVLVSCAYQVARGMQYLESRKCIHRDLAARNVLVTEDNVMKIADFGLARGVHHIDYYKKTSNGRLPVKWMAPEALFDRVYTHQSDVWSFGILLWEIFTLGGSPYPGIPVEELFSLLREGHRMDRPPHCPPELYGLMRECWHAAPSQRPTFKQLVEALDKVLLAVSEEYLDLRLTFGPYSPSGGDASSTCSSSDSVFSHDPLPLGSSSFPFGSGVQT
Sequence of FGFR4 kinase (P22455 22-802): as the sequence (P22455 22-802 V550L) above, with L529V counted along it
T1 sequence (P22455 whole entry, change not shown, the tested form may be a part): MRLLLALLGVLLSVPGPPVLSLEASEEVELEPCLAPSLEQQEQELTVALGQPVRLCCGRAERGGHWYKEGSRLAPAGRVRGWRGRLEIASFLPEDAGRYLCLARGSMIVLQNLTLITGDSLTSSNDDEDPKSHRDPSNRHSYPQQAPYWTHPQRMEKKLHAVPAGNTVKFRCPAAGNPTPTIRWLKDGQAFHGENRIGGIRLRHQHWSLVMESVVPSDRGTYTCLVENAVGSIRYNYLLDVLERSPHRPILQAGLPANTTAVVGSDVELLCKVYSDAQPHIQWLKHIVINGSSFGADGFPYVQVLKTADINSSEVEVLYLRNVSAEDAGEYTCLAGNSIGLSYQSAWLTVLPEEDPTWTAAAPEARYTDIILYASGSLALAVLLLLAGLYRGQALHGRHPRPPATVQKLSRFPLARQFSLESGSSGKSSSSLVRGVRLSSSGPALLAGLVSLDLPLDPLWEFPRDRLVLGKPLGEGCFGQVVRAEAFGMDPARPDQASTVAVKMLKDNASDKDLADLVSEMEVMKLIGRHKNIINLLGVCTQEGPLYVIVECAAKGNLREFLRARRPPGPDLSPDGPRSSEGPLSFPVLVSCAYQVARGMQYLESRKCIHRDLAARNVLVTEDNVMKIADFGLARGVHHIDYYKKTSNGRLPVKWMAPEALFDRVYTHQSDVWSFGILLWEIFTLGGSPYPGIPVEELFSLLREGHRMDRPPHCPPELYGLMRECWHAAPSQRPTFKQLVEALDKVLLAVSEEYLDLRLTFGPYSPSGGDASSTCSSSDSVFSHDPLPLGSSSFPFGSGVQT
T2 sequence (P22455 whole entry V550L, the tested form may be a part): as the sequence (P22455 whole entry, change not shown, the tested form may be a part) above, with V550L counted along it

SMILES | IC50 [1] [nM] | IC50 [2] [nM] | GI50 [3] [nM] | GI50 [4] [nM]
C=CC(=O)Nc1cc(N2CCC(N3CCN(C)CC3)CC2)c(C)cc1Nc1ncc(C#N)c(Nc2ccccc2OC(C)C)n1 [Example 13, N-(2-((5-cyano-4-((2-isopropoxyphenyl)amino)pyrimidin-2-yl)amino)-4-methyl-5-(4-(4-methylpiperazin-1-yl)piperidin-1-yl)phenyl) acrylamide] | 10 to 50 | 10 to 50 | ≤ 10 | 10 to 50
C=CC(=O)Nc1cc(N2CCN(C)CC2)c(F)cc1Nc1ncc(C#N)c(Nc2ccccc2OC(C)C)n1 [Example 14, N-(2-((5-cyano-4-((2-isopropoxyphenyl)amino)pyrimidin-2-yl)amino)-4-fluoro-5-(4-methylpiperazin-1-yl)phenyl) acrylamide] | 50 to 100 | 10 to 50 | ≤ 10 | ≤ 10
C=CC(=O)Nc1cc(N2CCN(CC)CC2)c(F)cc1Nc1ncc(C#N)c(Nc2ccccc2OC(C)C)n1 [Example 15, N-(2-((5-cyano-4-((2-isopropoxyphenyl)amino)pyrimidin-2-yl)amino)-5-(4-ethylpiperazin-1-yl)-4-fluorophenyl) acrylamide] | 50 to 100 | 10 to 50 | ≤ 10 | ≤ 10
C=CC(=O)Nc1cc(N2CCC(N(C)C)CC2)c(F)cc1Nc1ncc(C#N)c(Nc2ccccc2OC(C)C)n1 [Example 16, N-(2-((5-cyano-4-((2-isopropoxyphenyl)amino)pyrimidin-2-yl)amino)-5-(4-(dimethylamino)piperidin-1-yl)-4-fluorophenyl) acrylamide] | 10 to 50 | ≤ 10 | ≤ 10 | ≤ 10
C=CC(=O)Nc1cc(N2CCC(N3CCCC3)CC2)c(F)cc1Nc1ncc(C#N)c(Nc2ccccc2OC(C)C)n1 [Example 17, N-(2-((5-cyano-4-((2-isopropoxyphenyl)amino)pyrimidin-2-yl)amino)-4-fluoro-5-(4-(pyrrolidin-1-yl)piperidin-1-yl)phenyl) acrylamide] | 10 to 50 | 10 to 50 | ≤ 10 | ≤ 10
C=CC(=O)Nc1cc(N2CCC(N3CCCCC3)CC2)c(F)cc1Nc1ncc(C#N)c(Nc2ccccc2OC(C)C)n1 [Example 18, N-(5-([1,4‘- bipiperidin]-1′-yl)-2-((5-cyano-4-((2-isopropoxyphenyl)amino)pyrimidin-2-yl)amino)-4-fluorophenyl) acrylamide] | 10 to 50 | 10 to 50 | ≤ 10 | ≤ 10
C=CC(=O)Nc1cc(N2CCC(N3CCOCC3)CC2)c(F)cc1Nc1ncc(C#N)c(Nc2ccccc2OC(C)C)n1 [Example 19, N-(2-((5-cyano-4-((2-isopropoxyphenyl)amino)pyrimidin-2-yl)amino)-4-fluoro-5-(4-morpholinopiperidin-1-yl)phenyl) acrylamide] | 100 to 1000 | 10 to 50 | ≤ 10 | ≤ 10

Next, values leading:

IC50 [1] [nM] | IC50 [2] [nM] | GI50 [3] [nM] | GI50 [4] [nM] | SMILES
10 to 50 | 10 to 50 | ≤ 10 | ≤ 10 | C=CC(=O)Nc1cc(N2CCC(N3CCN(C)CC3)CC2)c(F)cc1Nc1ncc(C#N)c(Nc2ccccc2OC(C)C)n1 [Example 20, N-(2-((5-cyano-4-((2-isopropoxyphenyl)amino)pyrimidin-2-yl)amino)-4-fluoro-5-(4-(4-methylpiperazin-1-yl)piperidin-1-yl)phenyl) acrylamide]
10 to 50 | 10 to 50 | ≤ 10 | 10 to 50 | C=CC(=O)Nc1cc(N2CCN(CC)CC2)ccc1Nc1ncc(C#N)c(Nc2c(F)cccc2OC(C)C)n1 [Example 21, N-(2-((5-cyano-4-((2-fluoro-6-isopropoxyphenyl)amino)pyrimidin-2-yl)amino)-5-(4-ethylpiperazin-1-yl)phenyl) acrylamide]
100 to 1000 | 100 to 1000 | 100 to 1000 | 100 to 1000 | C=CC(=O)Nc1cc(N2CCN(CC)CC2)ccc1Nc1ncc(C#N)c(Nc2c(C)cccc2OC(C)C)n1 [Example 22, N-(2-((5-cyano-4-((2-isopropoxy-6-methylphenyl)amino)pyrimidin-2-yl)amino)-5-(4-ethylpiperazin-1-yl)phenyl) acrylamide]
50 to 100 | ≤ 10 | ≤ 10 | ≤ 10 | C=CC(=O)Nc1cc(N2CCN(CC)CC2)ccc1Nc1ncc(C#N)c(Nc2cc(F)ccc2OC(C)C)n1 [Example 23, N-(2-((5-cyano-4-((5-fluoro-2-isopropoxyphenyl)amino)pyrimidin-2-yl)amino)-5-(4-ethylpiperazin-1-yl)phenyl) acrylamide]
10 to 50 | 10 to 50 | 10 to 50 | ≤ 10 | C=CC(=O)Nc1cc(N2CCN(CC)CC2)ccc1Nc1ncc(C#N)c(Nc2cc(C)ccc2OC(C)C)n1 [Example 24, N-(2-((5-cyano-4-((2-isopropoxy-5-methylphenyl)amino)pyrimidin-2-yl)amino)-5-(4-ethylpiperazin-1-yl)phenyl) acrylamide]
50 to 100 | 10 to 50 | 10 to 50 | 10 to 50 | C=CC(=O)Nc1cc(N2CCN(CC)CC2)ccc1Nc1ncc(C#N)c(Nc2cc(C#N)ccc2OC(C)C)n1 [Example 25, N-(2-((5-cyano-4-((5-cyano-2-isopropoxyphenyl)amino)pyrimidin-2-yl)amino)-5-(4-ethylpiperazin-1-yl)phenyl) acrylamide]
100 to 1000 | 100 to 1000 | 100 to 1000 | 100 to 1000 | C=CC(=O)Nc1cc(N2CCN(CC)CC2)ccc1Nc1ncc(C#N)c(Nc2cc(C(F)(F)F)ccc2OC(C)C)n1 [Example 26, N-(2-((5-cyano-4-((2-isopropoxy-5-(trifluoromethyl)phenyl)amino)pyrimidin-2-yl)amino)-5-(4-ethylpiperazin-1-yl)phenyl) acrylamide]
≤ 10 | ≤ 10 | ≤ 10 | ≤ 10 | C=CC(=O)Nc1cc(N2CCN(CC)CC2)ccc1Nc1ncc(C#N)c(Nc2ccc(F)cc2OC(C)C)n1 [Example 27, N-(2-((5-cyano-4-((4-fluoro-2-isopropoxyphenyl)amino)pyrimidin-2-yl)amino)-5-(4-ethylpiperazin-1-yl)phenyl) acrylamide]

Source: US12582654B2, “Cyano-substituted pyridine and cyano-substituted pyrimidine compound and preparation method therefor and application thereof” (BEIJING SCITECH-MQ PHARMACEUTICALS LIMITED, priority 2019, dated 2026)
